Source: US20240277653A1, “USE OF FURANCARBOXYLIC ACIDS IN THE PREPARATION OF ADDITIVES FOR ANIMAL FEEDS” (ANIPHA TECHNOLOGIES PTY LTD, priority 2021, published 2024)

What was measured:
[1] = system: weaned piglets; assay: Effects of furancarboxylic acids on performance of weaned piglets; type: in vivo, Duroc-landrace-yorkshire swine; settings: 65-day-old pigs, basal diet comprising 2000 ppm test article, 28 days, mean
Text: A total of 120 65-day-old Duroc-landrace-yorkshire swine with similar body weight were randomly divided into 4 groups, each with 3 replicates, half male and female, […]. The pigpen and utensils were disinfected before the test. During the period of test, pigs were kept in separate pens under the same feeding and management conditions. During the test, the test pigs were fed with food and water ad libitum, and were fed twice a day. The test groups are shown in Table 1, among which, group I was the control group, and was only fed with the basal diet; test groups II, III and IV were fed with the basal diet comprising 2000 ppm of a compound of furancarboxylic acids shown in Table 1, respectively. […] The test lasted 28 days, and the performances of the test pigs, for example, the average daily feed intake (ADFI, g/d*pig), average daily weight gain (ADG, g/d*pig) and feed conversion ratio (FCR) of each pig were counted.

[2] = system: yellow-feathered broilers; assay: Use of furancarboxylic acids in a feed for chicken (broiler performance); type: in vivo; settings: 1-day-old broilers, basal diet comprising 1000 ppm test article, 20 days, mean
Text: This experiment adopted a single-factor randomization design. 480 1-day-old broilers with an average body weight of 50 g were selected and randomly divided into 4 groups, with 6 replicates in each group, half male and female, 20 yellow-feathered broilers per replicate. The chicken house and utensils were disinfected before the test. During the period of test, broilers were kept in cages under the same feeding and management conditions. The basal diet is mainly based on corn-soybean meal, and other antioxidants and growth promoters are not added during the whole feeding. The test groups are shown in Table 2, among which, group I was the control group, and was only fed with the basal diet; test groups II, III and IV were fed with the basal diet comprising 1000 ppm of a compound of furancarboxylic acids shown in Table 2, respectively. The test lasted 20 days, and the test broilers were fed with food and water ad libitum, and were fed twice a day. Test broilers in each replicate were weighed at 21 days of age (stop feeding for 12 hours and keep water). The feed consumption of the test broilers was counted, and the average daily feed intake (ADFI, g/d*broiler), average daily weight gain (ADG, g/d*broiler) and feed conversion ratio (FCR) of each test broiler were calculated.

[3] = system: grass carp fingerlings; assay: Use of furancarboxylic acids in a feed for fish (grass carp growth-promoting test); type: in vivo; settings: 500 ppm in test feed, 8 weeks; for Weight gain: 100×(final−initial)/initial weight; for FCR (feed conversion rate): feed intake/weight gain
Experimental: Test fish: The test fish used were the healthy and lively grass carp fingerlings of the same year and were reared in a large cage (4×2×1.5 m^3) for 4 weeks before being used for formal breeding tests. The experimental system was a small floating cage (with size of 1.1×1.1×1.1 m^3); each small cage is equipped with a bubbling head, and bubbling 24 hours a day. The small cages and the temporary cages were placed in a test facility, a 3500 m^2 pond, the pond depth was about 1.5 m, and the pond water was fully aerated bottom water. During the test, 240 grass carps that had been starved for 1 day were randomly divided into 3 groups, each group was provided with 4 replicates, and 20 fish were placed in each replicate. Each replicate was weighed and placed into 12 cages, respectively fed with a test feed supplemented with a compound of furancarboxylic acids.
Test feed: The test feed was prepared according to the formula in Table 3, and 500 ppm of a compound of furancarboxylic acids were added to different test groups according to Table 4. The feedstuff used was ultrafinely grinded and then passed through the Jiangsu Muyang extruder to make a floating extruded feed with a particle size of 3 mm. The mold release temperature was 130° C., and 3% soybean oil was sprayed externally through the oil injection equipment, and sealed in a cool place for use.
Procedures: The experiment adopts artificial food restriction feeding, the feeding amount is adjusted once a week, the feeding level (based on the initial body weight) of each group is exactly the same, feeding twice a day (at 7:30 am and 15:00 pm), and the total feeding amount is 580 g per replicate. The test lasted 8 weeks. The water quality was monitored regularly during the test. The water temperature was 26.88±3.08° C., with DO>5.0 mg O L^−1, pH 7.8, ammonia nitrogen <0.50 mg N L^−1, and nitrite nitrogen <0.05 mg N L^−1 during the whole breeding process.
Parameter statistics: During the test, the fish in each cage were weighed as a whole 1 day of stopping feeding, and their weight gain (WG, %), feed conversion rate (FCR) and survival rate (SR, %) were calculated as follows:
Weight gain (WG, %)=100×(average final weight−average initial weight)/average initial weight;
Feed conversion rate (FCR)=feed intake/weight gain of fish;
Survival rate (SR, %)=100×number of fish at the end of the experiment/number of fish at the beginning of the experiment.

SMILES	ADFI (average daily feed intake) [1] [g/d*pig]	ADG (average daily weight gain) [1] [g/d*pig]	FCR (feed conversion ratio) [1]	ADFI (average daily feed intake) [2] [g/d*broiler]	ADG (average daily weight gain) [2] [g/d*broiler]	FCR (feed conversion ratio) [2]	Average final weight [3] [g]	SR (survival rate) [3] [%]	Weight gain [3] [%]	FCR (feed conversion rate) [3]
O=C(O)c1coc(C(=O)O)c1 [2,4-Furandicarboxylic acid]	1263	507	2.490	36.5	17.4	2.10	–	–	–	–
O=C(O)c1ccco1 [2-Furancarboxylic acid]	1274	512	2.489	35.2	16.9	2.08	586.87	82.50	134.96	1.48
O=C(O)c1ccoc1 [3-Furancarboxylic acid]	1240	498	2.491	34.0	16.4	2.07	589.33	83.75	138.98	1.48
